Source: patent US20150132342A1, “NOVEL IMMUNE ACTIVATORS: SUBSTITUTE 4-AMINOQUINAZOLINES” (The Regents of the University of California, priority 2013, published 2015)

Assays:
Type in all cases: cell-based
TLR4/MD-2/CD14 = molecular target: T1, TLR4/MD-2/CD14 (Homo sapiens, UniProt O00206+Q9Y6Y9); assay: hTLR4 HEK Blue reporter cells, NF-κB SEAP secretion (QuantiBlue OD630); settings: for hTLR4 0.5 μM: Quantiblue OD630 of hTLR4 HEK Blue cells, normalized to LPS positive control=100; for Activity relative to compound 1a (SAR in words): TLR4 reporter cells and hPBMC
T1 construct: host or cells: HEK293 (HEK Blue hTLR4)
Experimental: In vitro assays using TLR reporter cell lines. Murine or humanTLR4 HEK Blue™ cells (Invivogen, 2.5×10^4 cells per well of a 96 well plate), or NF-κB/SEAPorter™ HEK 293 cells (Imgenex, San Diego, Calif.) for human TLR2, TLR3, TLR5, TLR7, TLR8, or TLR9 (5×10^4 cells per well of 96 well plate) were incubated with graded doses of the test compound. The culture supernatants were harvested after a 20-24 h incubation period. Secreted alkaline phosphatase (SEAP) activity in the supernatants was determined by a colorimetric assay, using either the SEAPorter Assay Kit (Imgenex, San Diego, Calif.), with absorbance read at 405 nm, or QuantiBlue (Invivogen), with absorbance read at 630 nm. In some experiments, graded concentrations of LPS-RS ([…], Invivogen) were used to test TLR4-specific binding of the hit compound.

human PBMC = assay: IL-8 release in human PBMC (ELISA); settings: Homo sapiens, PBMC, 18 h; 0.5 μM; IL-8 release, normalized to LPS positive control=100
Experimental: In vitro activities in human peripheral blood mononuclear cells (PBMC). Human PBMC were isolated from buffy coats obtained from the San Diego Blood Bank (San Diego, Calif.) as described previously.^5,6 PBMC (1×10^6/mL) were incubated with various compounds in complete RPMI (Omega Scientific) for 18 h at 37° C., 5% CO2 and culture supernatants were collected. The levels of IL-8 in the supernatants were determined by ELISA (BD Biosciences).

HepG2 cells = assay: MTT assay in HepG2 cells; settings: compounds tested at 10 μM; normalized with OD570-650 of vehicle treatment; in % (unit assumed)

T1 sequence (O00206 24-839): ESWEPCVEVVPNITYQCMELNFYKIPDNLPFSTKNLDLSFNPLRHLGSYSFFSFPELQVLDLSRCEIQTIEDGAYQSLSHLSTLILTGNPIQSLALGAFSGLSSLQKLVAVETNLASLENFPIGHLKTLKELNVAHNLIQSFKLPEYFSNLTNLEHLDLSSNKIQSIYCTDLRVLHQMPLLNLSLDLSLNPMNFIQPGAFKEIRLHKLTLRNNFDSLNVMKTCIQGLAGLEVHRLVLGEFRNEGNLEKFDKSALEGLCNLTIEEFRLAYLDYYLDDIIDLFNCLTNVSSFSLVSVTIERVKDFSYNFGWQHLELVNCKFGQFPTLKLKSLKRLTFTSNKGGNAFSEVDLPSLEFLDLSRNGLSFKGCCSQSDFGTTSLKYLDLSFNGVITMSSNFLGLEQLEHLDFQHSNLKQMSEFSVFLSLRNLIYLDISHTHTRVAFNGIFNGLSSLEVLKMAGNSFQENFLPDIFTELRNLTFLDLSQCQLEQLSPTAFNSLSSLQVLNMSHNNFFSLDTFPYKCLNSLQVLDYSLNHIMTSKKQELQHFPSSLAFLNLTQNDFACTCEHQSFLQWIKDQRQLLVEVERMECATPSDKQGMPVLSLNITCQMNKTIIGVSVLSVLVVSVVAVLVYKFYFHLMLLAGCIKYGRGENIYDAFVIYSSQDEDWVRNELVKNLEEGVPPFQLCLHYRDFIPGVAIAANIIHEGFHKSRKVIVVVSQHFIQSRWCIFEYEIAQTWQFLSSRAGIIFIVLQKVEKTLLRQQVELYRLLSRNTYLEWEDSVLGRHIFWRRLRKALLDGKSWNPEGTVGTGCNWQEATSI
T1 sequence (Q9Y6Y9 19-160): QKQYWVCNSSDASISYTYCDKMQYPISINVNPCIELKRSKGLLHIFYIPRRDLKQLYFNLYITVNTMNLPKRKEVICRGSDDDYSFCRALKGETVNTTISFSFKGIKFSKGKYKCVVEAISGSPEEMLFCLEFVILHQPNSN

| Compound | hTLR4 0.5 μM (TLR4/MD-2/CD14) | Activity relative to compound 1a (SAR in words) (TLR4/MD-2/CD14) | IL-8 release (% of LPS control) at 0.5 µM (human PBMC) | HepG2 MT (HepG2 cells) |
| --- | --- | --- | --- | --- |
| CCOC(=O)c1nc(Nc2cc(Oc3ccccc3C)cc([N+](=O)[O-])c2)c2ccccc2n1 [Compound 1b, Ethyl 4-((3-nitro-5-(o-tolyloxy)phenyl)amino)quinazoline-2-carboxylate] | 45.5 | enhanced | 20.5% | 96.7 |
| CCOC(=O)c1nc(Nc2cc(Oc3cccc(C)c3)cc([N+](=O)[O-])c2)c2ccccc2n1 [Compound 1c, Ethyl 4-((3-nitro-5-(m-tolyloxy)phenyl)amino)quinazoline-2-carboxylate] | 14.5 |  | 5.8% | 109.9 |
| CCOC(=O)c1nc(Nc2cc(Oc3ccc(C)cc3)cc([N+](=O)[O-])c2)c2ccccc2n1 [Compound 1d, Ethyl 4-((3-nitro-5-(p-tolyloxy)phenyl)amino)quinazoline-2-carboxylate] | 0.5 |  | 0.4% | 108.8 |
| CCOC(=O)c1nc(Nc2cc(Oc3ccccc3CC)cc([N+](=O)[O-])c2)c2ccccc2n1 [Compound 1e, Ethyl 4-((3-(2-ethylphenoxy)-5-nitrophenyl)amino)quinazoline-2-carboxylate] | 4.2 | substantial loss of activity | 3.2% | 98.9 |
| CCOC(=O)c1nc(Nc2cc(Oc3ccccc3Cl)cc([N+](=O)[O-])c2)c2ccccc2n1 [Compound 1f, Ethyl 4-((3-(2-chlorophenoxy)-5-nitrophenyl)amino)quinazoline-2-carboxylate] | 73.9 | enhanced | 27.3% | 107.4 |
| CCOC(=O)c1nc(Nc2cc(Oc3ccccc3I)cc([N+](=O)[O-])c2)c2ccccc2n1 [Compound 1h, Ethyl 4-((3-(2-iodophenoxy)-5-nitrophenyl)amino)quinazoline-2-carboxylate] | 65.5 | enhanced | 34.2% | 93.8 |
| CCOC(=O)c1nc(Nc2cc(Oc3ccccc3C(F)(F)F)cc([N+](=O)[O-])c2)c2ccccc2n1 [Compound 1i, Ethyl 4-((3-nitro-5-(2-(trifluoromethyl)phenoxy)phenyl)amino)quinazoline-2-carboxylate] | 58.7 |  | 26.5% | 67.1 |
| CCOC(=O)c1nc(Nc2cc(Oc3c(C)cccc3C)cc([N+](=O)[O-])c2)c2ccccc2n1 [Compound 1j, Ethyl 4-((3-(2,6-dimethylphenoxy)-5-nitrophenyl)amino)quinazoline-2-carboxylate] | 0.6 |  | 0% | 106.3 |
| CCOC(=O)c1nc(Nc2cc(Oc3ccc4ccccc4c3)cc([N+](=O)[O-])c2)c2ccccc2n1 [Compound 1k, Ethyl 4-((3-(naphthalen-2-yloxy)-5-nitrophenyl)amino)quinazoline-2-carboxylate] | 0.8 | loss of activity | 0% | 111.4 |
| CCOC(=O)c1nc(Nc2cc(N)cc(Oc3ccccc3)c2)c2ccccc2n1 [Compound 5a, Ethyl 4-((3-amino-5-phenoxyphenyl)amino)quinazoline-2-carboxylate] | 0.6 | complete loss of activity | 0.3% | 106.1 |
